Earlier results as cited in patent publication US20020177614A1, “Methods for treating nuerodegenerative diseases including alzheimer's” (priority 2001, published 2002).

Test system: Diphtheria and Pseudomonas toxins
Conditions: several bacterial ADP-ribosylating toxins, including Diphtheria and Pseudomonas toxins

NC(=O)c1cccnc1 [nicotinamide]
effect on bacterial ADP-ribosylating toxins: prevent or reverse the effects
